Source: US20250255929A1, “METHODS FOR REDUCING RISKS ASSOCIATED WITH HEART FAILURE AND FACTORS ASSOCIATED THEREWITH” (Stealth BioTherapeutics Inc., priority 2012, published 2025)
“And” between values parts separate entries of the source, which are not always exact repeats. Identical values can stand only once. Square brackets hold non-standard residues; d marks the D form. Ends that are not written are not given here. Dmt = Cc1cc(O)cc(C)c1C[C@H](N)C(=O)O

How the values were obtained:
Type in all cases: in vivo
[1] = tested on: Mitochondrial ATP to ADP ratio; assay: Mitochondrial ATP to ADP ratio (ApoSENSOR assay) in LV mitochondria, dog model of heart failure; conditions: LV mitochondria of HF dogs after three months, 0.5 mg/kg/day, n=5; control 0.38±0.04, p<0.05
Method: Heart failure was induced as described in Example 1. […] Half the dogs were treated with the peptide (n=5); the other half were treated with drug vehicle and served as controls (n=5). Peptide treatment was started upon induction of heart failure (HF), defined as left ventricular ejection fraction of approximately 30%. The daily dose of the peptide was 0.5 mg/kg/day administered intravenously for three months. Subcutaneous daily injections of saline were administered to the controls. Left ventricular tissue was harvested at the end of the three months of treatment. Mitochondria were isolated from the tissue. MK ATP activation was measured using the thallium-sensitive fluorophore assay kit and quantified in relative fluorescence units (RFU) per mg protein. Mitochondrial ATP to ADP ratio was measured using the bioluminescent ApoSENSOR™ assay kit (Enzo Life Sciences, Farmingdale, NY).

NT-pro BNP = assay: Plasma NT-pro BNP (double antibody sandwich ELISA) in dog model of heart failure; conditions: for plasma NT-pro BNP levels (FIG. 5), in words: HF dogs
Method: Heart failure was induced in dogs via multiple sequential intracoronary microembolizations as described in Sabbah, et al., Am J Physiol. (1991) 260:H1379-84, herein incorporated by reference in its entirety and summarized in Example 1.
Heart failure was induced as described in Example 1. […] Half the dogs were treated with the peptide; the other half were treated with drug vehicle and served as controls. Peptide treatment was started upon induction of heart failure (HF), defined as left ventricular ejection fraction of approximately 30%. The daily dose of the peptide was 0.5 mg/kg/day administered intravenously. Blood samples were drawn on EDTA anticoagulant and were centrifuged at 2,500 RPM and the plasma extracted, aliquoted in 1 ml volumes into crystat tubes and stored at −70° C. until assayed. Once the follow-up was completed in all dogs, the plasma samples were thawed to room temperature and NT-pro BNP was assayed.
Nt-pro BNP (pg/ml) was determined in EDTA-plasma on the principle of the double antibody sandwich Enzyme-linked immunosorbent assay (ELISA). The assay was performed based upon the instructions came along with the assay kit (NT-pro BNP, Kamiya Biomedical Company, Cat #KT-23770). Using standard curves with the help of Software (MasterPlex-2010), the concentration of each biomarker was determined.

ALCAT1 = ALCAT1 mRNA in LV tissue (real-time PCR), dog model of heart failure; conditions: LV tissue of HF dogs, 3 months, 0.5 mg/kg once daily s.c., n=6; untreated HF increased 3.56-fold vs normal; normalized to GAPDH
Method: (§1) Heart failure was induced in dogs via multiple sequential intracoronary microembolizations as described in Sabbah, et al., Am J Physiol. (1991) 260:H1379-84, herein incorporated by reference in its entirety.
(§2) Twelve dogs were subject to coronary microembolization-induced heart failure (LV ejection fraction ˜30%) as described in Example 1. […] RNA was prepared from LV tissue of all 12 dogs at the end of the treatment phase and from the LV of 6 normal (NL) dogs for comparison. mRNA levels of Taz1, MLCL AT1 and ALCAT1 were determined by real-time PCR. Changes in mRNA expression were expressed as fold changes using the CT Method with normalization to […] (GAPDH) as internal control.

Taz1 = Taz1 mRNA in LV tissue (real-time PCR), dog model of heart failure; conditions: LV tissue of HF dogs, 3 months, 0.5 mg/kg once daily s.c., n=6; untreated HF decreased 2.25-fold vs normal; normalized to GAPDH
Method: as §1, §2

[2] = tested on: reactive oxygen species (ROS); assay: Plasma ROS (luminol chemiluminescence) in dog model of heart failure; conditions: for plasma ROS levels (FIG. 2), in words: HF dogs
Method: Heart failure was induced as described in Example 1. […] Half the dogs were treated with the peptide; the other half were treated with drug vehicle and served as controls. Peptide treatment was started upon induction of heart failure (HF), defined as left ventricular ejection fraction of approximately 30%. The daily dose of the peptide was 0.5 mg/kg/day administered intravenously. Blood samples were drawn on EDTA anticoagulant and were centrifuged at 2,500 RPM and the plasma extracted, aliquoted in 1 ml volumes into crystat tubes and stored at −70° C. until assayed. Once the follow-up was completed in all dogs, the plasma samples were thawed to room temperature and ROS was assayed. To assess ROS levels in the plasma, luminol (5-amino-2,3 dihydro-1,4 phtalazindione) was added to the samples. ROS levels were then assessed by chemiluminescence activity.

interleukin-6 (IL-6) = assay: Plasma IL-6 (double antibody sandwich ELISA) in dog model of heart failure; conditions: HF dogs
Method: The methods of Example 1 were used to induce heart failure, administer peptide or vehicle and collect plasma. Fourteen dogs were used in this example. Half the dogs were treated with the mitochondrial peptide; the other half were treated with drug vehicle and served as controls. Peptide treatment was started in both groups upon induction of heart failure (HF), defined as left ventricular ejection fraction of approximately 30%.
IL-6 was quantified in EDTA-plasma using the double antibody sandwich ELISA technique. Briefly, IL-6 (Canine IL-6 Duo Set, Cat #DY1609) was purchased from R&D Systems. The assay was performed based on instructions provided by the supplier with minor modifications. The amount of EDTA-plasma incubated with the antibody plate was 150 μl and incubation time was 18 hours at 4° C. Using standard curves and software, the concentration of IL-6 was expressed as pg/ml.

[3] = plasma, individual HF dogs, 6 weeks after initiating therapy, 0.5 mg/kg/day
[4] = plasma, individual HF dogs, 12 weeks after initiating therapy, 0.5 mg/kg/day
[5] = plasma, peptide group, individual dogs, heart failure prior to initiating therapy

D-Arg-2′,6′-Dmt-Lys-Phe-NH2 ([dR][Dmt]KF-NH2) [aromatic-cationic peptide]
ATP/ADP (mitochondrial ATP to ADP ratio) [1]: 1.16±0.15 | plasma NT-pro BNP levels (FIG. 5), in words (NT-pro BNP; treatment for 12 weeks): normal or near normal levels | plasma NT-pro BNP levels (FIG. 5), in words (NT-pro BNP; treatment for six weeks): reduced NT-pro BNP levels | NT-pro BNP, 6Wk, AVG (NT-pro BNP; plasma, average of 7 HF dogs, 6 weeks after initiating therapy, 0.5 mg/kg/day): 667 pg/mL | NT-pro BNP, 12 Wk, AVG (NT-pro BNP; plasma, average of 7 HF dogs, 12 weeks after initiating therapy, 0.5 mg/kg/day): 354 pg/mL | NT-pro BNP, 6Wk (NT-pro BNP; [3]): 695 pg/ml (2×) and 559 pg/ml and 796 pg/ml and 680 pg/ml and 593 pg/ml and 654 pg/ml | NT-pro BNP, 12 Wk (NT-pro BNP; [4]): 299 pg/mL and 422 pg/mL and 234 pg/mL and 294 pg/mL and 417 pg/mL and 393 pg/mL and 423 pg/mL | NT-pro BNP, BL, AVG (NT-pro BNP; plasma, peptide group average (7 dogs), baseline before heart failure (before treatment)): 278 pg/mL | NT-pro BNP, Pre, AVG (NT-pro BNP; plasma, peptide group average (7 dogs), heart failure prior to initiating therapy): 1128 pg/mL | NT-pro BNP, BL (NT-pro BNP; plasma, peptide group, individual dogs, baseline before heart failure (before treatment)): 257 pg/mL and 203 pg/mL and 271 pg/mL and 320 pg/mL and 289 pg/mL and 265 pg/mL and 346 pg/mL | NT-pro BNP, Pre (NT-pro BNP; [5]): 1512 pg/mL and 1223 pg/mL and 1078 pg/mL and 1034 pg/mL and 1018 pg/mL and 1090 pg/mL and 941 pg/mL | ALCAT1 mRNA: reduced increase, fold (ALCAT1): 1.54 fold | Taz1 mRNA: attenuated decrease, fold (Taz1): 1.23 fold | plasma ROS levels (FIG. 2), in words ([2]; treatment for 12 weeks): near normal levels | plasma ROS levels (FIG. 2), in words ([2]; treatment for six weeks): reduced ROS levels | Reactive oxygen species concentration, 6 Wk [2, 3]: 18.4 RLU×10^5/ml and 16.6 RLU×10^5/ml and 15.1 RLU×10^5/ml and 23.3 RLU×10^5/ml | Reactive oxygen species concentration, 12 Wk [2, 4]: 12.4 RLU×10^5/ml (2×) and 8.3 RLU×10^5/ml and 9.0 RLU×10^5/ml and 10.5 RLU×10^5/ml | Reactive oxygen species concentration, 12 Wk, Mean ([2]; plasma, mean of 5 HF dogs, 12 weeks after initiating therapy, 0.5 mg/kg/day): 10.5 RLU×10^5/ml | Reactive oxygen species concentration, 6 Wk, Mean ([2]; plasma, mean of HF dogs, 6 weeks after initiating therapy, 0.5 mg/kg/day): 18.4 RLU×10^5/ml | Reactive oxygen species concentration, BL, Mean ([2]; plasma, peptide group mean (5 dogs), baseline (before HF and treatment)): 5.3 RLU×10^5/ml | Reactive oxygen species concentration, PRE, Mean ([2]; plasma, peptide group mean, heart failure prior to initiating therapy): 20.7 RLU×10^5/ml | Reactive oxygen species concentration, BL ([2]; plasma, peptide group, individual dogs, baseline (before HF and treatment)): 5.5 RLU×10^5/ml and 3.9 RLU×10^5/ml and 6.8 RLU×10^5/ml and 5.7 RLU×10^5/ml and 4.7 RLU×10^5/ml | Reactive oxygen species concentration, PRE [2, 5]: 23.6 RLU×10^5/ml and 18.5 RLU×10^5/ml and 14.6 RLU×10^5/ml and 26.0 RLU×10^5/ml | plasma IL-6 levels (FIG. 3), in words (interleukin-6 (IL-6); treatment for 12 weeks): near normal levels | plasma IL-6 levels (FIG. 3), in words (interleukin-6 (IL-6); treatment for six weeks): reduced IL-6 levels
